15 molecules from patent US20190185508A1, “DEUTERATED NUCLEOSIDE REVERSE TRANSCRIPTASE INHIBITORS” (Merck Sharp & Dohme Corp., priority 2017, published 2019) can be followed below.

For series [1], the system named is HIV-1 (H9IIIB virus) replication in MT4-GFP cells. The series can be described thus: Viking assay: antiviral potency in a multiple round HIV-1 infection assay. The format is cell-based. The settings on record: Human immunodeficiency virus 1; 10% normal human serum; MT4-GFP cells infected with H9IIIB virus; inhibition of reproductive ratio R0; read-out: Viking, IC50 (10%NHS). On the procedure:
Assessing antiviral potency in a multiple round HIV-1 infection assay. HIV-1 replication was monitored using MT4-gag-GFP clone D3 (hereafter designate MT4-GFP), which are MT-4 cells modified to harbor a GFP reporter gene, the expression of which is dependent on the HIV-1 expressed proteins tat and rev. Productive infection of an MT4-GFP cell with HIV-1 results in GFP expression approximately 24 h post-infection.
MT4-GFP cells were maintained at 37° C./5% CO2/90% relative humidity in RPMI 1640 supplemented with 10% fetal bovine serum, 100 U/mL penicillin/streptomycin, and 400 μg/mL G418 to maintain the reporter gene. For infections, MT4-GFP cells were placed in the same medium lacking G418 and infected overnight with H9IIIB virus at an approximate multiplicity of infection of 0.01 in the same incubation conditions. Cells were then washed and re-suspended in either RPMI 1640 containing 10% or 50% normal human serum at 1.6×10^5 cells/mL. Compound plates were prepared by dispensing compounds dissolved in DMSO into wells of 384 well poly D lysine-coated plates (0.2 μl/well) using an ECHO acoustic dispenser. Each compound was tested in a 10 point serial 3-fold dilution (typical final concentrations: 8.4 μM-0.43 nM). Controls included no inhibitor (DMSO only) and a combination of three antiviral agents (efavirenz, indinavir, and an integrase strand transfer inhibitor at final concentrations of 4 μM each). Cells were added (50 μL/well) to compound plates and the infected cells were maintained at 37° C./5% CO2/90% relative humidity.
Infected cells were quantified at two time points, ˜48 h and ˜72 h post-infection, by counting the number of green cells in each well using an Acumen eX3 scanner. The increase in the number of green cells over ˜24 h period gives the reproductive ratio, R0, which is typically 5-15 and has been shown experimentally to be in logarithmic phase (data not shown). Inhibition of R0 is calculated for each well, and IC50s determined by non-linear 4-parameter curve fitting.

Series [2] can be described thus: CTG assay: cytotoxicity in CellTiter-Glo Luminescent Cell Viability Assay. The settings on record: MT4-GFP cells, 10% normal human serum, 48 h incubation. In kind it is cell-based. How it is done: Assessing Cytotoxicity in CellTiter-Glo Luminescent Cell Viability Assay (CTG).
MT4-GFP cells were seeded in RPMI 1640 supplemented with 10% fetal bovine serum, 100 U/mL penicillin/streptomycin overnight at 37° C./5% CO2/90% relative humidity. Cells were then washed and resuspended in RPMI 1640 containing 10% normal human serum at a density of 0.8×10^5 cells/mL. Compound plates were prepared by dispensing compounds dissolved in DMSO into wells of 384 well solid black plates (Corning 3571) using an ECHO acoustic dispenser (0.2 μl/well). […] Controls included DMSO. Cells were added (50 μL/well) to compound plates and were maintained at 37° C./5% CO2/90% relative humidity. CTG reagent (Promega, G7573) was added to the cell plates after 48 h incubation according to the manufacturer's description. Luminescence signals were recorded on EnVision plate reader (PerkinElmer). CC50s were determined by non-linear 4-parameter curve fitting. The resulting data is shown in Table 3 with the marketed HIV nucleoside reverse transcriptase inhibitor AZT (azidothymidine, zidovudine) included as a control.
(Cellular ATP, detected with luciferase, serves as a proxy for viable cell number.)

The structures appear in SMILES notation.

`Cc1cn([C@H]2C[C@H](N=[N+]=[N-])[C@@H](CO)O2)c(=O)[nH]c1=O` [AZT, 3′-azido-3′-deoxythymidine, reference compound]: in series [1], the half-inhibitory concentration (IC50) (as a rule, the concentration needed to halve the response being measured) worked out at 37 nM. Moreover, the half-maximal cytotoxic concentration (CC50) – broadly, the concentration at which the toxic effect on the cells reaches its halfway point – at 48 h in series [2] was over 8400 nM.
For `[2H][C@@]1(O)C[C@H](n2cc(F)c3c(N)ncnc32)O[C@]1(C#C)CO` [Example 1], in that order: 2310 nM and over 42000 nM.
On the same counts, the results for `[2H][C@]1(O)C[C@H](n2cc(F)c3c(N)ncnc32)O[C@]1(C#C)CO` [Example 2, (2R,3S,5R)-5-{4-amino-5-fluoro-7H-pyrrolo[2,3-d]pyrimidin-7-yl}-2-ethynyl-2-(hydroxymethyl)(3-^2H)oxolan-3-ol] are 3.1 nM and 31900 nM.
With `[2H][C@]1(O)C[C@H](n2cnc3c(N)nc(F)nc32)O[C@]1(C#C)CO` [Example 3, (2R,3S,5R)-5-(6-amino-2-fluoro-9H-purin-9-yl)-2-ethynyl-2-(hydroxymethyl)(3-^2H)oxolan-3-ol], the IC50 in series [1] was 1.2 nM. Further, the 50% cytotoxic concentration (CC50) at 48 h in series [2] was over 42000 nM.
`[2H][C@@]1(O)C[C@H](n2cnc3c(N)nc(F)nc32)O[C@]1(C#C)CO` [Example 4, (2R,3R,5R)-5-(6-amino-2-fluoro-9H-purin-9-yl)-2-ethynyl-2-(hydroxymethyl)(3-^2H)oxolan-3-ol]: in series [1], the IC50 was 1190 nM. Also, the half-maximal cytotoxic concentration (CC50) at 48 h in series [2] was over 42000 nM.
For `[2H][C@@]1(O)C[C@H](n2ccc3c(N)nc(Cl)nc32)O[C@]1(C#C)CO` [Example 5, (2R,3R,5R)-5-(4-amino-2-chloro-7H-pyrrolo[2,3-d]pyrimidin-7-yl)-2-ethynyl(3-^2H)-2-(hydroxymethyl)-tetrahydrofuran-3-ol], in that order: over 42000 nM and over 42000 nM.
With `[2H][C@]1(O)C[C@H](n2ccc3c(N)nc(Cl)nc32)O[C@]1(C#C)CO` [Example 6, (2R,3S,5R)-5-(4-amino-2-chloro-7H-pyrrolo[2,3-d]pyrimidin-7-yl)-2-ethynyl(3-^2H)-2-(hydroxymethyl)-tetrahydrofuran-3-ol], the 50% inhibitory concentration (IC50) in series [1] is 10.6 nM. In series [2], this molecule registered a cytotoxic concentration (CC50) at 48 h of over 42000 nM.
Regarding `[2H]C(O)[C@@]1(C#C)O[C@@H](n2cnc3c(N)nc(F)nc32)C[C@@H]1O` (stereo partly drawn) [Example 7, [(2R,3S,5R)-5-(6-amino-2-fluoro-9H-purin-9-yl)-3-oxhydryl-2-ethynyloxolan-2-yl](^2H)-methanol], the IC50 in series [1] was 0.7 nM. Also, the CC50 at 48 h in series [2] was over 42000 nM.
For the molecule `[2H]C([2H])(O)[C@@]1(C#C)O[C@@H](n2cnc3c(N)nc(F)nc32)C[C@@H]1O` [Example 8, [(2R,3S,5R)-5-(6-amino-2-fluoro-9H-purin-9-yl)-3-oxhydryl-2-ethynyloxolan-2-yl](^2H2)methanol], in series [1], the half-inhibitory concentration (IC50) came to 1.1 nM. In series [2], the CC50 at 48 h was over 42000 nM.
`[2H]C#C[C@]1(CO)O[C@@H](n2cnc3c(N)nc(F)nc32)C[C@@H]1O` [Example 9, (2R,3S,5R)-5-(6-amino-2-fluoro-9H-purin-9-yl)-2-(^2H)ethynyl-2-(hydroxymethyl)oxolan-3-ol]: the IC50 in series [1] came to 0.6 nM. In series [2], this molecule showed a CC50 at 48 h of over 42000 nM.
On the same counts, the results for `[2H]C(O)[C@@]1(C#C)O[C@@H](n2ccc3c(N)nc(Cl)nc32)C[C@@H]1O` (stereo partly drawn) [Example 10, (2R,3S,5R)-5-{4-amino-2-chloro-7H-pyrrolo[2,3-d]pyrimidin-7-yl}-2-ethynyl-2-[hydroxy(^2H)methyl]oxolan-3-ol] are 5.5 nM and over 42000 nM.
For `[2H]C([2H])(O)[C@@]1(C#C)O[C@@H](n2ccc3c(N)nc(Cl)nc32)C[C@@H]1O` [Example 11, (2R,3S,5R)-5-{4-amino-2-chloro-7H-pyrrolo[2,3-d]pyrimidin-7-yl}-2-ethynyl-2-[hydroxy(^2H2)methyl]oxolan-3-ol], in that order: 5.6 nM and over 42000 nM.
On the same counts, the results for `[2H]C#C[C@]1(CO)O[C@@H](n2ccc3c(N)nc(Cl)nc32)C[C@@H]1O` [Example 12, (2R,3S,5R)-5-{4-amino-2-chloro-7H-pyrrolo[2,3-d]pyrimidin-7-yl}-2-(^2H)ethynyl-2-(hydroxymethyl)oxolan-3-ol] are 4.6 nM and over 42000 nM.
As to `[2H][C@]1(n2cnc3c(N)nc(F)nc32)C[C@H](O)[C@@](C#C)(CO)O1` [Example 13, (2R,3S,5R)-5-(6-amino-2-fluoro-9H-purin-9-yl)-2-ethynyl-2-(hydroxymethyl)tetrahydrofuran-5-^2H-3-ol], in series [1], the IC50 amounted to 0.2 nM. Besides, the CC50 at 48 h in series [2] was over 42000 nM.
On to `[2H][C@]1(n2ccc3c(N)nc(Cl)nc32)C[C@H](O)[C@@](C#C)(CO)O1` [Example 14, (2R,3S,5R)-5-(4-amino-2-chloro-7H-pyrrolo[2,3-d]pyrimidin-7-yl)-2-ethynyl-2-(hydroxymethyl)tetrahydrofuran-5-^2H-3-ol], for which the half-inhibitory concentration (IC50) in series [1] came out at 0.3 nM. Moreover, the CC50 at 48 h in series [2] is over 42000 nM.
